Where two headings read alike, the source gives them in different places. Each block holds one compound with its values, some of them ahead of it.
How the values were obtained:
Assay in all cases: biochemical
Design in all cases: DiscoveRx KINOMEscan active site-directed competition binding; percent of control kinase bound to immobilised ligand
[1] = molecular target: T1, FLT3(D835H) (Homo sapiens, UniProt P36888, D835H)
T1 sequence (P36888 1-993 D835H): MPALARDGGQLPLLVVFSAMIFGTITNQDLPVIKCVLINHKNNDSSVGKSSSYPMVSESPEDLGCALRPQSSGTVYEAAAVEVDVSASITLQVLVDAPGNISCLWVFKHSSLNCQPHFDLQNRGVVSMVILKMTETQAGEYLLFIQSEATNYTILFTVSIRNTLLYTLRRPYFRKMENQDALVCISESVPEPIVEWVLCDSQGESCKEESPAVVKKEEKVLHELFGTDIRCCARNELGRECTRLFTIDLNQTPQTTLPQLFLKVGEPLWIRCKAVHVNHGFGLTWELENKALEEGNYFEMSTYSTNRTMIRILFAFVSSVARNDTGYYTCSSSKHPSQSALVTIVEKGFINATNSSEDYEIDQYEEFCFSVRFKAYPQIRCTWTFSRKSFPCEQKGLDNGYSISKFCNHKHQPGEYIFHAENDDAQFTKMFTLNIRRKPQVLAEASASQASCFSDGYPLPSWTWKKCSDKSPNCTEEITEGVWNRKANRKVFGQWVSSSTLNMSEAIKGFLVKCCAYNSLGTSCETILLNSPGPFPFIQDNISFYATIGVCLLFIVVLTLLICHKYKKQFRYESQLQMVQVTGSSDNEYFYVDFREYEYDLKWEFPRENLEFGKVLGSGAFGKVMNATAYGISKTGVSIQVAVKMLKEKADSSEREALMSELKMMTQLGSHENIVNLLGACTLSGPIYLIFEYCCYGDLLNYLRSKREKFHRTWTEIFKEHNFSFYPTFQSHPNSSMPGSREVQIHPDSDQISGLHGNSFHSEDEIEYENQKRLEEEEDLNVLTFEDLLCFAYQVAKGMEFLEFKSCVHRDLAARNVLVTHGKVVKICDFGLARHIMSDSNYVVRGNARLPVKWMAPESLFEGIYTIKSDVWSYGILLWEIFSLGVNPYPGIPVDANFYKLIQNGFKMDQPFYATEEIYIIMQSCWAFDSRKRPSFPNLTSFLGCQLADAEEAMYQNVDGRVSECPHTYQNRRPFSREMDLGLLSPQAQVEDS

[2] = molecular target: T2, PRKG2 (Homo sapiens, UniProt Q13237)
T2 sequence (Q13237 1-762): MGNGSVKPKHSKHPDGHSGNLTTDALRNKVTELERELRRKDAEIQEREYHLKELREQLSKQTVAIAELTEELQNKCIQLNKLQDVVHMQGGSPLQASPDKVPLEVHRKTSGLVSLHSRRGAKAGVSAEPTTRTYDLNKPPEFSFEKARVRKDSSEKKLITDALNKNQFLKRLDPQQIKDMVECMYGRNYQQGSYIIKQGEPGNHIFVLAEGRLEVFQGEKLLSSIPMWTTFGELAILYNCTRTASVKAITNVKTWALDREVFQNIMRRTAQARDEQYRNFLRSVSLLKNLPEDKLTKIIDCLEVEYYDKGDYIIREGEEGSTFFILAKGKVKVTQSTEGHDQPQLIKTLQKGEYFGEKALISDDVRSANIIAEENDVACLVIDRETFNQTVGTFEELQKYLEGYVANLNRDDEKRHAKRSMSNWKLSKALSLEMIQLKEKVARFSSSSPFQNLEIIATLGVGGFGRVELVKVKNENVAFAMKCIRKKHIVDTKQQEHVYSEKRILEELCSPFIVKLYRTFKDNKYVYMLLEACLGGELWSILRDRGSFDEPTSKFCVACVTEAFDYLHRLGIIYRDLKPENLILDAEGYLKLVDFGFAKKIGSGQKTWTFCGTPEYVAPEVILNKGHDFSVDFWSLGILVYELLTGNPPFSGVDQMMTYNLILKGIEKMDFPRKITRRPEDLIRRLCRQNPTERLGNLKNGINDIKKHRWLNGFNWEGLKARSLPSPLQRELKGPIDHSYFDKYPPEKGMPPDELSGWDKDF

[3] = molecular target: T3, p38-gamma (Homo sapiens, UniProt P53778)
T3 construct: gene MAPK12
T3 sequence (P53778 1-367): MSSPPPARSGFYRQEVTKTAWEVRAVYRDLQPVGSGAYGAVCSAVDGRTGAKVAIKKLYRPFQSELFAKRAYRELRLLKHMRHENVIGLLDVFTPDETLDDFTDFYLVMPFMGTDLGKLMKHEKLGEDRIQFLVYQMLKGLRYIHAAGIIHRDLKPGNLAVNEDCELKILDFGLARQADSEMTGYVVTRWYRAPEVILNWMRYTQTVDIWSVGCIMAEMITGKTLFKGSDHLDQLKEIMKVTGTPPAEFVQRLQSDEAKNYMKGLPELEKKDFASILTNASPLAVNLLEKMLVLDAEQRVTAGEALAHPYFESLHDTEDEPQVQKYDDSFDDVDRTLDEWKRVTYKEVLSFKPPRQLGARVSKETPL

[4] = molecular target: T4, MRCKB (Homo sapiens, UniProt Q9Y5S2)
T4 construct: gene CDC42BPB
T4 sequence (Q9Y5S2 whole entry): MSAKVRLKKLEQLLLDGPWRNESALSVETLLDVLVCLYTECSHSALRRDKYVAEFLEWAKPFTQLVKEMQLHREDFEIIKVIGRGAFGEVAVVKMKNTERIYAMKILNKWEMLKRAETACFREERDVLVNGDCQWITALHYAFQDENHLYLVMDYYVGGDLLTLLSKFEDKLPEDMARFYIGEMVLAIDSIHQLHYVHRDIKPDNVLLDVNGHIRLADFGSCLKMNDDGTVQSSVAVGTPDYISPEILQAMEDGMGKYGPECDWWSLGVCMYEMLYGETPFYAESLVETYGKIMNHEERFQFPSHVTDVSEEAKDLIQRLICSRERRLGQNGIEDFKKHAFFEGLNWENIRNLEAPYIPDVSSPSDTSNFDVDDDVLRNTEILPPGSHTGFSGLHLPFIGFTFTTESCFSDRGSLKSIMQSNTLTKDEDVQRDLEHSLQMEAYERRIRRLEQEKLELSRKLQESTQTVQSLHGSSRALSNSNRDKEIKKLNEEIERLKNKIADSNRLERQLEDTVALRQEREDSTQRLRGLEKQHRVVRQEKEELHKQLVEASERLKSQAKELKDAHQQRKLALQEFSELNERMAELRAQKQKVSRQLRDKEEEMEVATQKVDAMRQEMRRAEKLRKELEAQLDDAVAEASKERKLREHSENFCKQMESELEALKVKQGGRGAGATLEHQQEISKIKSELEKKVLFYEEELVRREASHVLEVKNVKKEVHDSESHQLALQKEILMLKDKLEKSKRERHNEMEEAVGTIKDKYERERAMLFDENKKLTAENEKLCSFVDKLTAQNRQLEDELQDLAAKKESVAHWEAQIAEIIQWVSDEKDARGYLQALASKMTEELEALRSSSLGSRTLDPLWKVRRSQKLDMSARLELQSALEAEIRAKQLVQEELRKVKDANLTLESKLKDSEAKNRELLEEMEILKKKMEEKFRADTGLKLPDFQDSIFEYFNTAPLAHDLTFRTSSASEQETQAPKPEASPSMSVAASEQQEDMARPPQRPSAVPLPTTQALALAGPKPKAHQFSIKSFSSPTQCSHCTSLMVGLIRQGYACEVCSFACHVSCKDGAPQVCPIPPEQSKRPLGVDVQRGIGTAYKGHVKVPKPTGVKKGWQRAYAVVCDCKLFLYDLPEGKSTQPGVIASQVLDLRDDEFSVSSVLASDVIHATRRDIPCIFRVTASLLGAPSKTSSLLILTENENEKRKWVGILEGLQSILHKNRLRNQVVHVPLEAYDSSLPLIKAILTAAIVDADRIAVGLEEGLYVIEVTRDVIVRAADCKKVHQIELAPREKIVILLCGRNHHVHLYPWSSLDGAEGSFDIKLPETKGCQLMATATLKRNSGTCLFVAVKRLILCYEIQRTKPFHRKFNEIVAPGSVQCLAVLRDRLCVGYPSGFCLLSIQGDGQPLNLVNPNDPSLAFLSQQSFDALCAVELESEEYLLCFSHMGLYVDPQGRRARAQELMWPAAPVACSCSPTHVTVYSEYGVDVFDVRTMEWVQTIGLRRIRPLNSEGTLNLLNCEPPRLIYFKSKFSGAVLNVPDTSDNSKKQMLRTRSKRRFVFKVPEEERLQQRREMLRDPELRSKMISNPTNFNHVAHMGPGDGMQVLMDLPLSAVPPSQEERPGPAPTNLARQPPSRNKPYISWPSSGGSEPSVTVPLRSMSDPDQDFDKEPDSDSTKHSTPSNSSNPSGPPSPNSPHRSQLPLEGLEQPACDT

[5] = molecular target: T5, FLT3(ITD) (Homo sapiens, UniProt P36888, ITD)
T5 sequence (P36888 564-993): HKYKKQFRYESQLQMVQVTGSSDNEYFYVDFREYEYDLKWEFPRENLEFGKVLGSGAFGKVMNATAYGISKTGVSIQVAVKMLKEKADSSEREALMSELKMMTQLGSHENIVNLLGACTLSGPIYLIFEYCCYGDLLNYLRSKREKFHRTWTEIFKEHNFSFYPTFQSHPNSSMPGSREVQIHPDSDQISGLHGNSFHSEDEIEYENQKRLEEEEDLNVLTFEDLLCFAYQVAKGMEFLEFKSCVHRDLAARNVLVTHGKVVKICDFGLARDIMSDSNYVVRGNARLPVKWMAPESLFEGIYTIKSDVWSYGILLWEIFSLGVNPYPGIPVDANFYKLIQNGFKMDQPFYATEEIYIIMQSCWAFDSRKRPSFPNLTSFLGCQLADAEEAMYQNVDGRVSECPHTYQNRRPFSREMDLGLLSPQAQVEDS

[6] = read-out: Olaparib / %Ctrl @ 10000nM
[7] = read-out: Talazoparib (BMN 673) / %Ctrl @ 10000nM
[8] = read-out: Rucaparib / %Ctrl @ 10000nM, binding competition, % of control
[9] = read-out: Niraparib (MK-4827) / %Ctrl @ 10000nM

percent of control binding at 10 µM [1, 6]: 91%
percent of control binding at 10 µM [2, 6]: 85%
percent of control binding at 10 µM [3, 6]: 83%
percent of control binding at 10 µM [4, 6]: 100%
percent of control binding at 10 µM [5, 6]: 100%
Structure (SMILES): O=C(c1cc(Cc2n[nH]c(=O)c3ccccc23)ccc1F)N1CCN(C(=O)C2CC2)CC1 [Olaparib]

percent of control binding at 10 µM [1, 7]: 89%
percent of control binding at 10 µM [2, 7]: 100%
percent of control binding at 10 µM [3, 7]: 60%
percent of control binding at 10 µM [4, 7]: 100%
percent of control binding at 10 µM [5, 7]: 100%
Structure (SMILES): Cn1ncnc1[C@H]1c2n[nH]c(=O)c3cc(F)cc(c23)N[C@@H]1c1ccc(F)cc1 [Talazoparib]

Rucaparib / %Ctrl @ 10000nM ([1]; binding competition, % of control): 42%
percent of control binding at 10 µM [2, 8]: 60%
percent of control binding at 10 µM [3, 8]: 58%
percent of control binding at 10 µM [4, 8]: 100%
Structure (SMILES): CNCc1ccc(-c2[nH]c3cc(F)cc4c3c2CCNC4=O)cc1 [Rucaparib]

Structure (SMILES): NC(=O)c1cccc2cn(-c3ccc([C@@H]4CCCNC4)cc3)nc12 [Niraparib]
percent of control binding at 10 µM [1, 9]: 83%
percent of control binding at 10 µM [2, 9]: 97%
percent of control binding at 10 µM [3, 9]: 48%
percent of control binding at 10 µM [4, 9]: 98%
percent of control binding at 10 µM [5, 9]: 92%
